Experimental data as given in patent publication US8034822B2, “Glucokinase activators” (Takeda San Diego, Inc., priority 2006, dated 2011).

These compounds were tested against T1, glucokinase (GK) (Homo sapiens, UniProt P35557) (assay: enzymatic glucokinase activity assay (ATP consumption, KinaseGlo luminescence)). Conditions: Against GK; Kact = concentration giving 50% of maximal increase in GK activity; 5 μM ATP, 5 mM Glucose, 60 min room temperature; values given as bins; read-out: pKact.
T1 construct: I.D. No. 1 corresponds to residues 12-465 of glucokinase; made in house; host or cells: E. coli DH10b-T1r, pFLAG-CTC plasmid
T1 sequence (P35557 with tags, fused parts or gaps isoform P35557-2): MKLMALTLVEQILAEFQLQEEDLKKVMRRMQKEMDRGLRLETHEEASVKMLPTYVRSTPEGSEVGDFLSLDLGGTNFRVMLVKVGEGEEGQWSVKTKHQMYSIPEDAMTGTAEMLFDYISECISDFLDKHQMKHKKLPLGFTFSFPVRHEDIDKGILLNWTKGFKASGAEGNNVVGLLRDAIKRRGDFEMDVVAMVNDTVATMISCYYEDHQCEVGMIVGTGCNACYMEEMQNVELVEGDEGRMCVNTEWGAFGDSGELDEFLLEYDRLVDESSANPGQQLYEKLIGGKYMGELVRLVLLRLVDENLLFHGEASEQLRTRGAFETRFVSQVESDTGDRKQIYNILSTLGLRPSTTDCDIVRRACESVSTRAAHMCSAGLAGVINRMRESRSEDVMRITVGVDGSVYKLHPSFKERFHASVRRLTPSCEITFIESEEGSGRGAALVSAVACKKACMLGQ
Assay type: biochemical
Description: The activity of compounds as glucokinase activators may be assayed in vitro, in vivo or in a cell line. Provided below is an enzymatic glucokinase activity assay.
Purified glucokinase may be obtained as follows. DNA encoding residues 12-465 of the full-length sequence of the human enzyme may be amplified by PCR and cloned into the HindIII and EcoRI sites of pFLAG-CTC (Sigma). SEQ. I.D. No. 1 corresponds to residues 12-465 of glucokinase.
The expression of recombinant glucokinase protein may be carried out by transformation and growth of DH10b-T1r E. coli cells incorporating the (pFLAG-CTC) plasmid in LB media. Protein expression can be induced in this system by the addition of IPTG to the culture medium.
Recombinant protein may be isolated from cellular extracts by passage over Sepharose Q Fast Flow resin (Pharmacia). This partially purified GK extract may then be further purified by a second passage over Poros HQ10 (Applied Biosystems). The purity of GK may be determined on denaturing SDS-PAGE gel. Purified GK may then be concentrated to a final concentration of 20.0 mg/ml. After flash freezing in liquid nitrogen, the proteins can be stored at −78° C. in a buffer containing 25 mM TRIS-HCl pH 7.6, 50 mM NaCl, and 0.5 mM TCEP.
The activation properties of compounds for GK may be determined using a black 384-well-plate format under the following reaction conditions: 25 mM Hepes pH 7.2, 25 mM NaCl, 10 mM MgCl2, 0.01% Brij35, 1 mM DTT, 5 μM ATP, 5 mM Glucose 2% DMSO. The amount of ATP consumed may be determined quantitatively by addition of equal volume of luciferase reagent (luciferase+beetle luciferin—KinaseGlo Luminescent Kinase Assay kit from Promega). The luminescence intensity may be measured by using the Analyst HT from LJL Biosystems.
The assay reaction may be initiated as follows: 4 μl of substrate mixture (12.5 μM ATP and 12.5 mM Glucose) was added to each well of the plate, followed by the addition of 2 μl of activator (2 fold serial dilutions for 11 data points for each activator) containing 10% DMSO. 4 μL of 1.25 nM GK solution may be added to initiate the reaction. The reaction mixture may then be incubated at room temperature for 60 min, and quenched and developed by addition of 10 μL of luciferase reagent. Luminescence intensities of the resulting reaction mixtures may be measured after a 10 min incubation at room temperature. The luminescence intensity may be measured by using the Analyst HT from LJL Biosystems.
pKact and % ACTmax values may be calculated by non-linear curve fitting of the compound concentrations and luminescence intensities to a standard inhibition/activation equation.
NC(=O)c1ccc(NC(=O)C(CC2CCCCC2)n2cnc3cc(S(=O)(=O)C4CC4)ccc3c2=O)nc1 (stereo not shown) [Compound 91, 6-[3-Cyclohexyl-2-(7-cyclopropanesulfonyl-4-oxo-4H-quinazolin-3-yl)-propionylamino]-nicotinamide] showed an EC50 of no more than 0.398 µM. With CS(=O)(=O)c1cc(Cl)c2ncn(C(CC3CCCCC3)C(=O)Nc3ccc(C(N)=O)cn3)c(=O)c2c1 (stereo not shown) [Compound 92, 6-[2-(8-Chloro-6-methanesulfonyl-4-oxo-4H-quinazolin-3-yl)-3-cyclohexyl-propionylamino]-nicotinamide] the EC50 was 0.501 to 0.794 µM. CS(=O)(=O)c1ccc2ncn([C@@H](CC3CCCCC3)C(=O)Nc3ccc(C(N)=O)cn3)c(=O)c2c1 [Compound 93, 6-[3-Cyclohexyl-2-(6-methanesulfonyl-4-oxo-4H-quinazolin-3-yl)-propionylamino]-nicotinamide] was tested, and the EC50 was 0.501 to 0.794 µM. In the case of COC(=O)c1ccc(NC(=O)C(CC2CCCCC2)n2cnc3c(S(C)(=O)=O)csc3c2=O)nc1 (stereo not shown) [Compound 102, Methyl 6-(3-cyclohexyl-2-(7-(methylsulfonyl)-4-oxothieno[3,2-d]pyrimidin-3(4H)-yl)propanamido)nicotinate], the EC50 is reported as 1 to 1.58 µM. COC(=O)c1ccc(NC(=O)C(CC2CCCCC2)n2cnc3c(S(=O)(=O)C(C)C)csc3c2=O)nc1 (stereo not shown) [Compound 104, Methyl 6-(3-cyclohexyl-2-(7-(isopropylsulfonyl)-4-oxothieno[3,2-d]pyrimidin-3(4H)-yl)propanamido)nicotinate] was tested, and the EC50 was 0.501 to 0.794 µM. Compound CC(C)S(=O)(=O)c1csc2c(=O)n(C(CC3CCCCC3)C(=O)Nc3ccc(F)cn3)cnc12 (stereo not shown) [Compound 105, 3-Cyclohexyl-N-(5-fluoropyridin-2-yl)-2-(7-(isopropylsulfonyl)-4-oxothieno[3,2-d]pyrimidin-3(4H)-yl)propanamide] has an EC50 of 1 to 1.58 µM. Cc1ccc(NC(=O)C(CC2CCCCC2)n2cnc3c(cnn3C)c2=O)nc1 (stereo not shown) [Compound 110, 3-Cyclohexyl-2-(1-methyl-4-oxo-1H-pyrazolo[3,4-d]pyrimidin-5(4H)-yl)-N-(5-methylpyridin-2-yl)propanamide] showed an EC50 of no less than 2 µM. With O=C(NC1CC1)c1ccc2c(=O)n(C(CC3CCCCC3)C(=O)Nc3ccc(F)cn3)cnc2c1 (stereo not shown) [Compound 118, 3-(3-Cyclohexyl-1-(5-fluoropyridin-2-ylamino)-1-oxopropan-2-yl)-N-cyclopropyl-4-oxo-3,4-dihydroquinazoline-7-carboxamide] the EC50 was 0.501 to 0.794 µM. Compound O=C(NC1CC1)c1ccc2c(=O)n(C(CC3CCCCC3)C(=O)Nc3ccc(F)cn3)c(=O)[nH]c2c1 (stereo not shown) [Compound 119, 3-(3-cyclohexyl-1-(5-fluoropyridin-2-ylamino)-1-oxopropan-2-yl)-N-cyclopropyl-2,4-dioxo-1,2,3,4-tetrahydroquinazoline-7-carboxamide] has an EC50 of no less than 2 µM. With COc1ccc2ncn(C(CC3CCCCC3)C(=O)Nc3nccs3)c(=O)c2c1 (stereo not shown) [Compound 131, 3-cyclohexyl-2-(6-methoxy-4-oxoquinazolin-3(4H)-yl)-N-(thiazol-2-yl)propanamide] the EC50 was no less than 2 µM. O=C(Nc1nccs1)C(CC1CCCCC1)n1cnc2c(Cl)cccc2c1=O (stereo not shown) [Compound 139, 2-(8-chloro-4-oxoquinazolin-3(4H)-yl)-3-cyclohexyl-N-(thiazol-2-yl)propanamide] was tested, and the EC50 was no less than 2 µM. With O=C(Nc1ncc(Cl)s1)C(CC1CCCCC1)n1cnc2c(C(F)(F)F)cccc2c1=O (stereo not shown) [Compound 142, N-(5-chlorothiazol-2-yl)-3-cyclohexyl-2-(4-oxo-8-(trifluoromethyl)-quinazolin-3(4H)-yl)propanamide] the EC50 was no less than 2 µM. CS(=O)(=O)c1ccc2c(=O)n(C(CC3CCCCC3)C(=O)Nc3ccc(C(N)=O)cn3)cnc2c1 (stereo not shown) [Compound 158, 6-(3-cyclohexyl-2-(7-(methylsulfonyl)-4-oxoquinazolin-3(4H)-yl)propanamido)nicotinamide] showed an EC50 of 0.501 to 0.794 µM. Compound O=C(Nc1ccc(F)cn1)C(CC1CCCCC1)n1cnc2ccc(F)cc2c1=O (stereo not shown) [Compound 159, 3-cyclohexyl-2-(6-fluoro-4-oxoquinazolin-3(4H)-yl)-N-(5-fluoropyridin-2-yl)propanamide] has an EC50 of no less than 2 µM. Work on O=C(Nc1ccc(Cl)cn1)C(CC1CCCCC1)n1cnc2ccc(F)cc2c1=O (stereo not shown) [Compound 160, N-(5-chloropyridin-2-yl)-3-cyclohexyl-2-(6-fluoro-4-oxoquinazolin-3(4H)-yl)propanamide] yielded an EC50 of 1 to 1.58 µM. Work on CS(=O)(=O)c1ccc2c(=O)n(C(CC3CCCCC3)C(=O)Nc3ccc(C#N)cn3)cnc2c1 (stereo not shown) [Compound 166, N-(5-cyanopyridin-2-yl)-3-cyclohexyl-2-(7-(methylsulfonyl)-4-oxoquinazolin-3(4H)-yl)propanamide] yielded an EC50 of no less than 2 µM. COc1ccc2ncn(C(CC3CCCCC3)C(=O)Nc3ccc(C(N)=O)cn3)c(=O)c2c1 (stereo not shown) [Compound 167, 6-(3-cyclohexyl-2-(6-methoxy-4-oxoquinazolin-3(4H)-yl)propanamido)nicotinamide] was tested, and the EC50 was 0.501 to 0.794 µM. In the case of COc1ccc2ncn(C(CC3CCCCC3)C(=O)Nc3ccc(Cl)cn3)c(=O)c2c1 (stereo not shown) [Compound 168, N-(5-chloropyridin-2-yl)-3-cyclohexyl-2-(6-methoxy-4-oxoquinazolin-3(4H)-yl)propanamide], the EC50 is reported as 0.501 to 0.794 µM. Compound NC(=O)c1ccc(NC(=O)C(CC2CCCCC2)n2cnc3cc(C(=O)NC4CC4)ccc3c2=O)nc1 (stereo not shown) [Compound 169, 3-(1-(5-carbamoylpyridin-2-ylamino)-3-cyclohexyl-1-oxopropan-2-yl)-N-cyclopropyl-4-oxo-3,4-dihydroquinazoline-7-carboxamide] has an EC50 of no more than 0.398 µM. Compound O=C(NC1CC1)c1ccc2c(=O)n(C(CC3CCCCC3)C(=O)Nc3ncc(Cl)s3)cnc2c1 (stereo not shown) [Compound 170, 3-(1-(5-chlorothiazol-2-ylamino)-3-cyclohexyl-1-oxopropan-2-yl)-N-cyclopropyl-4-oxo-3,4-dihydroquinazoline-7-carboxamide] has an EC50 of no more than 0.398 µM. In the case of O=C(NC1CC1)c1ccc2c(=O)n(C(CC3CCCCC3)C(=O)Nc3ccc(Cl)cn3)cnc2c1 (stereo not shown) [Compound 171, 3-(1-(5-chloropyridin-2-ylamino)-3-cyclohexyl-1-oxopropan-2-yl)-N-cyclopropyl-4-oxo-3,4-dihydroquinazoline-7-carboxamide], the EC50 is reported as no more than 0.398 µM. O=C(NC1CC1)c1ccc2c(=O)n(C(CC3CCCCC3)C(=O)Nc3ncc(Cl)s3)c(=O)[nH]c2c1 (stereo not shown) [Compound 172, 3-(1-(5-chlorothiazol-2-ylamino)-3-cyclohexyl-1-oxopropan-2-yl)-N-cyclopropyl-2,4-dioxo-1,2,3,4-tetrahydroquinazoline-7-carboxamide] gave an EC50 of 0.501 to 0.794 µM. Compound O=C(NC1CCCC1)c1ccc2c(=O)n(C(CC3CCCCC3)C(=O)Nc3ncc(Cl)s3)cnc2c1 (stereo not shown) [Compound 173, 3-(1-(5-chlorothiazol-2-ylamino)-3-cyclohexyl-1-oxopropan-2-yl)-N-cyclopentyl-4-oxo-3,4-dihydroquinazoline-7-carboxamide] has an EC50 of 0.501 to 0.794 µM. For CNC(=O)c1ccc2c(=O)n(C(CC3CCCCC3)C(=O)Nc3ncc(Cl)s3)cnc2c1 (stereo not shown) [Compound 175, 3-(1-(5-chlorothiazol-2-ylamino)-3-cyclohexyl-1-oxopropan-2-yl)-N-methyl-4-oxo-3,4-dihydroquinazoline-7-carboxamide], the EC50 was no more than 0.398 µM. CN(C)CCNC(=O)c1ccc2c(=O)n(C(CC3CCCCC3)C(=O)Nc3ncc(Cl)s3)cnc2c1 (stereo not shown) [Compound 176, 3-(1-(5-chlorothiazol-2-ylamino)-3-cyclohexyl-1-oxopropan-2-yl)-N-(2-(dimethylamino)ethyl)-4-oxo-3,4-dihydroquinazoline-7-carboxamide] showed an EC50 of 1 to 1.58 µM.
